Data from patent US8445492B2, “Method for inhibiting growth of cancer cells and cell telomere and diseases of cell proliferation by using heteroannelated anthraquinone derivative compounds” (National Defense Medical Center, priority 2008, dated 2013).

Legend:
Assay type in all cases: cell-based
Conditions in all cases: for GI50: read-out: GI50
SF-268 = assay: NCI DTP in-vitro dose response, CNS Cancer
SF-295 = assay: NCI DTP in-vitro dose response, CNS Cancer
SF-539 = assay: NCI DTP in-vitro dose response, CNS Cancer
SNB-19 = assay: NCI DTP in-vitro dose response, CNS Cancer
SNB-75 = assay: NCI DTP in-vitro dose response, CNS Cancer
U251 = assay: NCI DTP in-vitro dose response, CNS Cancer
COLO 205 = assay: NCI DTP in-vitro dose response, Colon Cancer
HCC-2998 = assay: NCI DTP in-vitro dose response, Colon Cancer
HCT-116 = assay: NCI DTP in-vitro dose response, Colon Cancer
HCT-15 = assay: NCI DTP in-vitro dose response, Colon Cancer
HT29 = assay: NCI DTP in-vitro dose response, Colon Cancer
KM12 = assay: NCI DTP in-vitro dose response, Colon Cancer
SW-620 = assay: NCI DTP in-vitro dose response, Colon Cancer

O=C1c2ccccc2C(=O)c2c1ccc1nccnc21 [TABLE 5-4]
CC50 (SF-268): > 100 µM
TGI (SF-268): >1.00E−4
Percent Growth (SF-268; Log10 Concentration −4.0): 1%
Percent Growth (SF-268; Log10 Concentration −5.0): 34%
Percent Growth (SF-268; Log10 Concentration −6.0): 86%
Percent Growth (SF-268; Log10 Concentration −7.0): 92%
Percent Growth (SF-268; Log10 Concentration −8.0): 96%
GI50 (SF-268): 4.98 µM
CC50 (SF-295): > 100 µM
TGI (SF-295): 3.23E−5
Percent Growth (SF-295; Log10 Concentration −4.0): −24%
Percent Growth (SF-295; Log10 Concentration −5.0): 25%
Percent Growth (SF-295; Log10 Concentration −6.0): 95%
Percent Growth (SF-295; Log10 Concentration −7.0): 83%
Percent Growth (SF-295; Log10 Concentration −8.0): 90%
GI50 (SF-295): 4.35 µM
CC50 (SF-539): > 100 µM
TGI (SF-539): 5.37E−5
Percent Growth (SF-539; Log10 Concentration −4.0): −9%
Percent Growth (SF-539; Log10 Concentration −5.0): 23%
Percent Growth (SF-539; Log10 Concentration −6.0): 64%
Percent Growth (SF-539; Log10 Concentration −7.0): 88%
Percent Growth (SF-539; Log10 Concentration −8.0): 90%
GI50 (SF-539): 2.18 µM
CC50 (SNB-19): > 100 µM
TGI (SNB-19): >1.00E−4
Percent Growth (SNB-19; Log10 Concentration −4.0): 4%
Percent Growth (SNB-19; Log10 Concentration −5.0): 57%
Percent Growth (SNB-19; Log10 Concentration −6.0): 90%
Percent Growth (SNB-19; Log10 Concentration −7.0): 93%
Percent Growth (SNB-19; Log10 Concentration −8.0): 94%
GI50 (SNB-19): 13.4 µM
CC50 (SNB-75): > 100 µM
TGI (SNB-75): >1.00E−4
Percent Growth (SNB-75; Log10 Concentration −4.0): 11%
Percent Growth (SNB-75; Log10 Concentration −5.0): 53%
Percent Growth (SNB-75; Log10 Concentration −6.0): 76%
Percent Growth (SNB-75; Log10 Concentration −7.0): 87%
Percent Growth (SNB-75; Log10 Concentration −8.0): 83%
GI50 (SNB-75): 11.9 µM
CC50 (U251): > 100 µM
TGI (U251): 4.29E−5
Percent Growth (U251; Log10 Concentration −4.0): −21%
Percent Growth (U251; Log10 Concentration −5.0): 35%
Percent Growth (U251; Log10 Concentration −6.0): 89%
Percent Growth (U251; Log10 Concentration −7.0): 93%
Percent Growth (U251; Log10 Concentration −8.0): 96%
GI50 (U251): 5.38 µM

O=C1c2ccccc2C(=O)c2c1ccc1nccnc21 [TABLE 5-3]
CC50 (COLO 205): > 100 µM
TGI (COLO 205): 2.84E−5
Percent Growth (COLO 205; Log10 Concentration −4.0): −35%
Percent Growth (COLO 205; Log10 Concentration −5.0): 29%
Percent Growth (COLO 205; Log10 Concentration −6.0): 74%
Percent Growth (COLO 205; Log10 Concentration −7.0): 86%
Percent Growth (COLO 205; Log10 Concentration −8.0): 92%
GI50 (COLO 205): 3.4 µM
CC50 (HCC-2998): > 100 µM
TGI (HCC-2998): 8.35E−5
Percent Growth (HCC-2998; Log10 Concentration −4.0): −3%
Percent Growth (HCC-2998; Log10 Concentration −5.0): 40%
Percent Growth (HCC-2998; Log10 Concentration −6.0): 52%
Percent Growth (HCC-2998; Log10 Concentration −7.0): 94%
Percent Growth (HCC-2998; Log10 Concentration −8.0): 97%
GI50 (HCC-2998): 1.4 µM
CC50 (HCT-116): > 100 µM
TGI (HCT-116): >1.00E−4
Percent Growth (HCT-116; Log10 Concentration −4.0): 3%
Percent Growth (HCT-116; Log10 Concentration −5.0): 55%
Percent Growth (HCT-116; Log10 Concentration −6.0): 91%
Percent Growth (HCT-116; Log10 Concentration −7.0): 99%
Percent Growth (HCT-116; Log10 Concentration −8.0): 96%
GI50 (HCT-116): 12.3 µM
CC50 (HCT-15): > 100 µM
TGI (HCT-15): 8.43E−5
Percent Growth (HCT-15; Log10 Concentration −4.0): −3%
Percent Growth (HCT-15; Log10 Concentration −5.0): 37%
Percent Growth (HCT-15; Log10 Concentration −6.0): 77%
Percent Growth (HCT-15; Log10 Concentration −7.0): 84%
Percent Growth (HCT-15; Log10 Concentration −8.0): 88%
GI50 (HCT-15): 4.63 µM
CC50 (HT29): > 100 µM
TGI (HT29): >1.00E−4
Percent Growth (HT29; Log10 Concentration −4.0): 1%
Percent Growth (HT29; Log10 Concentration −5.0): 46%
Percent Growth (HT29; Log10 Concentration −6.0): 74%
Percent Growth (HT29; Log10 Concentration −7.0): 95%
Percent Growth (HT29; Log10 Concentration −8.0): 99%
GI50 (HT29): 7.01 µM
CC50 (KM12): > 100 µM
TGI (KM12): 4.95E−5
Percent Growth (KM12; Log10 Concentration −4.0): −18%
Percent Growth (KM12; Log10 Concentration −5.0): 40%
Percent Growth (KM12; Log10 Concentration −6.0): 76%
Percent Growth (KM12; Log10 Concentration −7.0): 90%
Percent Growth (KM12; Log10 Concentration −8.0): 89%
GI50 (KM12): 5.26 µM
CC50 (SW-620): > 100 µM
TGI (SW-620): 3.08E−5
Percent Growth (SW-620; Log10 Concentration −4.0): −26%
Percent Growth (SW-620; Log10 Concentration −5.0): 25%
Percent Growth (SW-620; Log10 Concentration −6.0): 58%
Percent Growth (SW-620; Log10 Concentration −7.0): 87%
Percent Growth (SW-620; Log10 Concentration −8.0): 94%
GI50 (SW-620): 1.71 µM

CCc1nc2ccc3c(c2[nH]1)C(=O)c1ccccc1C3=O [TABLE 4-4]
CC50 (SF-268): > 100 µM
TGI (SF-268): >1.00E−4
Percent Growth (SF-268; Log10 Concentration −4.0): 28%
Percent Growth (SF-268; Log10 Concentration −5.0): 57%
Percent Growth (SF-268; Log10 Concentration −6.0): 88%
Percent Growth (SF-268; Log10 Concentration −7.0): 96%
Percent Growth (SF-268; Log10 Concentration −8.0): 87%
GI50 (SF-268): 17.7 µM
CC50 (SF-295): > 100 µM
TGI (SF-295): >1.00E−4
Percent Growth (SF-295; Log10 Concentration −4.0): 9%
Percent Growth (SF-295; Log10 Concentration −5.0): 35%
Percent Growth (SF-295; Log10 Concentration −6.0): 69%
Percent Growth (SF-295; Log10 Concentration −7.0): 90%
Percent Growth (SF-295; Log10 Concentration −8.0): 88%
GI50 (SF-295): 3.65 µM
CC50 (SF-539): > 100 µM
TGI (SF-539): >1.00E−4
Percent Growth (SF-539; Log10 Concentration −4.0): 13%
Percent Growth (SF-539; Log10 Concentration −5.0): 46%
Percent Growth (SF-539; Log10 Concentration −6.0): 80%
Percent Growth (SF-539; Log10 Concentration −7.0): 83%
Percent Growth (SF-539; Log10 Concentration −8.0): 81%
GI50 (SF-539): 7.46 µM
CC50 (SNB-19): > 100 µM
TGI (SNB-19): >1.00E−4
Percent Growth (SNB-19; Log10 Concentration −4.0): 39%
Percent Growth (SNB-19; Log10 Concentration −5.0): 61%
Percent Growth (SNB-19; Log10 Concentration −6.0): 92%
Percent Growth (SNB-19; Log10 Concentration −7.0): 94%
Percent Growth (SNB-19; Log10 Concentration −8.0): 84%
GI50 (SNB-19): 30.9 µM
CC50 (SNB-75): > 100 µM
TGI (SNB-75): >1.00E−4
Percent Growth (SNB-75; Log10 Concentration −4.0): 17%
Percent Growth (SNB-75; Log10 Concentration −5.0): 41%
Percent Growth (SNB-75; Log10 Concentration −6.0): 49%
Percent Growth (SNB-75; Log10 Concentration −7.0): 66%
Percent Growth (SNB-75; Log10 Concentration −8.0): 66%
GI50 (SNB-75): 0.872 µM
CC50 (U251): > 100 µM
TGI (U251): >1.00E−4
Percent Growth (U251; Log10 Concentration −4.0): 27%
Percent Growth (U251; Log10 Concentration −5.0): 49%
Percent Growth (U251; Log10 Concentration −6.0): 84%
Percent Growth (U251; Log10 Concentration −7.0): 96%
Percent Growth (U251; Log10 Concentration −8.0): 94%
GI50 (U251): 9.58 µM

CCc1nc2ccc3c(c2[nH]1)C(=O)c1ccccc1C3=O [TABLE 4-3]
CC50 (COLO 205): > 100 µM
TGI (COLO 205): >1.00E−4
Percent Growth (COLO 205; Log10 Concentration −4.0): 9%
Percent Growth (COLO 205; Log10 Concentration −5.0): 41%
Percent Growth (COLO 205; Log10 Concentration −6.0): 85%
Percent Growth (COLO 205; Log10 Concentration −7.0): 93%
Percent Growth (COLO 205; Log10 Concentration −8.0): 93%
GI50 (COLO 205): 6.36 µM
CC50 (HCC-2998): > 100 µM
TGI (HCC-2998): >1.00E−4
Percent Growth (HCC-2998; Log10 Concentration −4.0): 22%
Percent Growth (HCC-2998; Log10 Concentration −5.0): 59%
Percent Growth (HCC-2998; Log10 Concentration −6.0): 90%
Percent Growth (HCC-2998; Log10 Concentration −7.0): 94%
Percent Growth (HCC-2998; Log10 Concentration −8.0): 88%
GI50 (HCC-2998): 17.4 µM
CC50 (HCT-116): > 100 µM
TGI (HCT-116): >1.00E−4
Percent Growth (HCT-116; Log10 Concentration −4.0): 11%
Percent Growth (HCT-116; Log10 Concentration −5.0): 42%
Percent Growth (HCT-116; Log10 Concentration −6.0): 78%
Percent Growth (HCT-116; Log10 Concentration −7.0): 95%
Percent Growth (HCT-116; Log10 Concentration −8.0): 92%
GI50 (HCT-116): 6.1 µM
CC50 (HCT-15): > 100 µM
TGI (HCT-15): >1.00E−4
Percent Growth (HCT-15; Log10 Concentration −4.0): 8%
Percent Growth (HCT-15; Log10 Concentration −5.0): 27%
Percent Growth (HCT-15; Log10 Concentration −6.0): 69%
Percent Growth (HCT-15; Log10 Concentration −7.0): 93%
Percent Growth (HCT-15; Log10 Concentration −8.0): 90%
GI50 (HCT-15): 2.82 µM
CC50 (HT29): > 100 µM
TGI (HT29): >1.00E−4
Percent Growth (HT29; Log10 Concentration −4.0): 11%
Percent Growth (HT29; Log10 Concentration −5.0): 48%
Percent Growth (HT29; Log10 Concentration −6.0): 88%
Percent Growth (HT29; Log10 Concentration −7.0): 100%
Percent Growth (HT29; Log10 Concentration −8.0): 94%
GI50 (HT29): 8.84 µM
CC50 (KM12): > 100 µM
TGI (KM12): >1.00E−4
Percent Growth (KM12; Log10 Concentration −4.0): 13%
Percent Growth (KM12; Log10 Concentration −5.0): 43%
Percent Growth (KM12; Log10 Concentration −6.0): 89%
Percent Growth (KM12; Log10 Concentration −7.0): 94%
Percent Growth (KM12; Log10 Concentration −8.0): 98%
GI50 (KM12): 7.15 µM
CC50 (SW-620): > 100 µM
TGI (SW-620): >1.00E−4
Percent Growth (SW-620; Log10 Concentration −4.0): 6%
Percent Growth (SW-620; Log10 Concentration −5.0): 39%
Percent Growth (SW-620; Log10 Concentration −6.0): 89%
Percent Growth (SW-620; Log10 Concentration −7.0): 96%
Percent Growth (SW-620; Log10 Concentration −8.0): 99%
GI50 (SW-620): 5.97 µM
